# Measured values from the supplement of paper PMC11061612.
# What was measured:
# Experiment in all cases: combination Emax (second highest fraction inhibited in the dose matrix, 72 h); higher = more inhibition; extreme values may be limits of the assay
# [1] = test system: CFPAC-1 (Pancreatic Carcinoma)
# Outline: (§1)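 Cell lines in DMEM/F12 or RPMI with 10% FBS were plated in 1536-well plates, held 24 hours at 37°C, 5% CO2, then given two-drug dose matrices for 72 hours (DMSO typically 0.2%). Viability was read by CellTiter-Glo 2.0 luminescence and scaled as inhibition from 0 (vehicle wells) to 1 (blank wells). Combination Emax is the second-highest inhibition in the matrix; Bliss excess is observed combination effect minus expected EA + EB − EA·EB, EA and EB being single-agent effects.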
# J82 (Bladder Carcinoma) = test system: J82 (Bladder Carcinoma)
# Outline: as §1
# [2] = test system: 697 (B-Lymphoblastic Leukemia)
# Outline: as §1
# [3] = test system: C3A (Hepatocellular Carcinoma)
# Outline: as §1
# [4] = test system: DMS-273 (Small Cell Lung Carcinoma)
# Outline: as §1
# [5] = test system: NCI-H1781 (Lung Adenocarcinoma)
# Outline: as §1
# [6] = test system: OCI-AML2 (Acute Myeloid Leukemia)
# Outline: as §1
# [7] = test system: NCI-H1299 (Non-Small Cell Lung Carcinoma)
# Outline: as §1
# [8] = test system: MDA-MB-231 (Breast Carcinoma)
# Outline: as §1
# [9] = test system: SW1088 (Low Grade Glioma)
# Outline: as §1
# SK-N-FI (Neuroblastoma) = test system: SK-N-FI (Neuroblastoma)
# Outline: as §1
# [10] = test system: MFH-ino (Other Solid Carcinomas)
# Outline: as §1
# [11] = test system: IHH-4 (Thyroid Gland Carcinoma)
# Outline: as §1
# [12] = test system: HCC2157 (Breast Carcinoma)
# Outline: as §1
# SN12C (Kidney Carcinoma) = test system: SN12C (Kidney Carcinoma)
# Outline: as §1
# [13] = test system: LU-99A (Non-Small Cell Lung Carcinoma)
# Outline: as §1
# [14] = test system: SW1990 (Pancreatic Carcinoma)
# Outline: as §1
# [15] = test system: COR-L23 (Non-Small Cell Lung Carcinoma)
# Outline: as §1
# [16] = test system: NALM-6 (B-Lymphoblastic Leukemia)
# Outline: as §1
# [17] = test system: TGBC24TKB (Biliary Tract Carcinoma)
# Outline: as §1
SMILES,combination Emax [1],combination Emax (J82 (Bladder Carcinoma)),combination Emax [2],combination Emax [3],combination Emax [4],combination Emax [5],combination Emax [6],combination Emax [7],combination Emax [8],combination Emax [9],combination Emax (SK-N-FI (Neuroblastoma)),combination Emax [10],combination Emax [11],combination Emax [12],combination Emax (SN12C (Kidney Carcinoma)),combination Emax [13],combination Emax [14],combination Emax [15],combination Emax [16],combination Emax [17]
"COc1nnc2ccc(N3CCC(c4ccc(OCCN5CCN(C)C(=O)[C@H]5C)cc4)CC3)nn12 [AZD5153] + CCN(CCO)CCCOc1ccc2c(Nc3cc(CC(=O)Nc4cccc(F)c4)[nH]n3)ncnc2c1 [AZD2811] (first compound max 1 µM, 7x7, partner max 1 µM)",0.394,0.355,1,0.524,0.901,0.517,1,0.71,0.65,0.519,0.657,0.553,0.682,1,0.394,0.505,0.118,0.354,0.938,0.765
"COc1nnc2ccc(N3CCC(c4ccc(OCCN5CCN(C)C(=O)[C@H]5C)cc4)CC3)nn12 [AZD5153] + Cc1c2c(nn1C)CSCc1cc(n(C)n1)CSc1cc(c3ccccc3c1)OCCCc1c(C(=O)O)n(C)c3c-2c(Cl)ccc13 [AZD5991] (first compound max 1 µM, 7x7, partner max 1 µM)",0.419,0.791,1,0.559,0.994,0.435,1,0.798,0.642,0.487,0.722,0.489,0.544,1,0.309,0.807,0.109,0.312,0.904,0.848
"CC1(C)CCC(CN2CCN(c3ccc(C(=O)NS(=O)(=O)c4ccc(NCC5CCOCC5)c([N+](=O)[O-])c4)c(Oc4cnc5[nH]ccc5c4)c3)CC2)=C(c2ccc(Cl)cc2)C1 [Venetoclax] + CN(C)CCCOc1ccc(-c2ccc3ncc4c(c3c2)n(C2CCOCC2)c(=O)n4C)cn1 [AZD0156] (first compound max 1 µM, 7x7, partner max 1 µM)",0.342,0.186,0.988,0.17,0.355,0.277,0.993,0.214,0.267,0.238,0.217,0.171,0.129,0.377,0.249,0.16,0.674,0.147,0.89,0.268
"Cn1cnc2c(F)c(Nc3ccc(Br)cc3Cl)c(C(=O)NOCCO)cc21 [Selumetinib] + C=CCn1c(=O)c2cnc(Nc3ccc(N4CCN(C)CC4)cc3)nc2n1-c1cccc(C(C)(C)O)n1 [AZD1775] (first compound max 10 µM, partner max 1 µM)",0.453,0.299,1,0.777,0.739,0.485,1,0.652,0.577,0.55,0.69,0.345,0.742,0.729,0.241,0.62,0.431,0.722,0.98,0.637
"C=CCn1c(=O)c2cnc(Nc3ccc(N4CCN(C)CC4)cc3)nc2n1-c1cccc(C(C)(C)O)n1 [AZD1775] + C[C@@H]1COCCN1C2=NC(=NC(=C2)C3(CC3)[S@](=N)(=O)C)C4=C5C=CNC5=NC=C4 [AZD6738] (first compound max 1 µM, partner max 10 µM)",0.536,0.414,1,0.567,0.923,0.65,1,0.889,0.84,0.684,0.857,0.536,0.886,0.983,0.408,0.694,0.623,0.595,0.971,0.832
"NC1(C(=O)N[C@@H](CCO)c2ccc(Cl)cc2)CCN(c2ncnc3[nH]ccc23)CC1 [Capivasertib] + COc1nnc2ccc(N3CCC(c4ccc(OCCN5CCN(C)C(=O)[C@H]5C)cc4)CC3)nn12 [AZD5153] (first compound max 10 µM, 7x7, partner max 1 µM)",0.531,0.632,0.985,0.478,0.884,0.527,1,0.669,0.703,0.638,0.579,0.513,0.636,1,0.152,0.665,0.208,0.552,0.945,0.789
"CC1(C)CCC(CN2CCN(c3ccc(C(=O)NS(=O)(=O)c4ccc(NCC5CCOCC5)c([N+](=O)[O-])c4)c(Oc4cnc5[nH]ccc5c4)c3)CC2)=C(c2ccc(Cl)cc2)C1 [Venetoclax] + Cc1cc2ncnn2cc1Nc1ncc2c(n1)n(C1CCOCC1)c(=O)n2C [AZD7648] (first compound max 1 µM, 7x7, partner max 10 µM)",0.275,0.131,0.983,0.212,0.482,0.329,1,0.224,0.356,0.341,0.262,0.318,0.259,0.628,0.218,0.404,0.572,0.164,0.789,0.332
"CN(CCO)CC[C@H](CSc1ccccc1)Nc1ccc(S(=O)(=O)NC(=O)c2ccc(N3CCC([C@@H](O)c4ccccc4-c4ccc(Cl)cc4)CC3)cc2)cc1S(=O)(=O)C(F)(F)F [AZD4320] + C=CCn1c(=O)c2cnc(Nc3ccc(N4CCN(C)CC4)cc3)nc2n1-c1cccc(C(C)(C)O)n1 [AZD1775] (first compound max 1 µM, partner max 1 µM)",0.699,0.117,1,0.631,0.708,0.563,1,0.88,0.716,0.391,0.629,0.237,0.694,0.969,0.322,0.762,0.757,0.656,1,0.682
"CN(C)CCCOc1ccc(-c2ccc3ncc4c(c3c2)n(C2CCOCC2)c(=O)n4C)cn1 [AZD0156] + CCN(CCO)CCCOc1ccc2c(Nc3cc(CC(=O)Nc4cccc(F)c4)[nH]n3)ncnc2c1 [AZD2811] (first compound max 1 µM, 7x7, partner max 1 µM)",0.0885,0.283,1,0.129,0.793,0.608,0.773,0.251,0.206,0.364,0.114,0.136,0.322,0.824,0.12,0.473,0.0964,0.116,0.766,0.505
"CC1(C)CCC(CN2CCN(c3ccc(C(=O)NS(=O)(=O)c4ccc(NCC5CCOCC5)c([N+](=O)[O-])c4)c(Oc4cnc5[nH]ccc5c4)c3)CC2)=C(c2ccc(Cl)cc2)C1 [Venetoclax] + C1CN(CCC1(C(=O)N[C@@H](CCO)C2=CC=C(C=C2)Cl)N)C3=NC=NC4=C3C=CN4 [Capivasertib] (first compound max 1 µM, 7x7, partner max 3 µM)",0.305,0.259,0.988,0.17,0.743,0.5,1,0.171,0.184,0.494,0.302,0.258,0.248,0.903,0.206,0.312,0.576,0.245,0.848,0.253
"CC1(C)CCC(CN2CCN(c3ccc(C(=O)NS(=O)(=O)c4ccc(NCC5CCOCC5)c([N+](=O)[O-])c4)c(Oc4cnc5[nH]ccc5c4)c3)CC2)=C(c2ccc(Cl)cc2)C1 [Venetoclax] + CCN(CCO)CCCOc1ccc2c(Nc3cc(CC(=O)Nc4cccc(F)c4)[nH]n3)ncnc2c1 [AZD2811] (first compound max 1 µM, 7x7, partner max 1 µM)",0.259,0.177,1,0.228,0.806,0.577,1,0.19,0.226,0.474,0.198,0.191,0.389,0.762,0.187,0.299,0.625,0.172,0.97,0.525
"Cc1c2c(nn1C)CSCc1cc(n(C)n1)CSc1cc(c3ccccc3c1)OCCCc1c(C(=O)O)n(C)c3c-2c(Cl)ccc13 [AZD5991] + C[C@@H](Nc1cc(F)cc(F)c1)c1cc(C(=O)N(C)C)cc2c(=O)cc(N3CCOCC3)oc12 [AZD8186] (first compound max 1 µM, 7x7, partner max 3 µM)",0.294,0.234,0.978,0.292,0.956,0.584,0.946,0.386,0.23,0.533,0.565,0.234,0.234,0.987,0.246,0.275,0.21,0.104,0.672,0.249
